Patent US12612386B2, “Heteroaryl-triazole compounds as pesticides” (Bayer Aktiengesellschaft, priority 2020, dated 2026)

Experiments:
Type in all cases: in vivo
[1] = test system: fall armyworm larvae (Spodoptera frugiperda); assay: whole plant or invertebrate; details: 168 h
Procedure: Spodoptera frugiperda—Spray Test
• Solvent: 78.0 parts by weight acetone • 1.5 parts by weight dimethylformamide • Emulsifier: alkylarylpolyglycol ether
(§1) To produce a suitable preparation of active compound, 1 part by weight of active compound is mixed with the stated amount of solvents and is diluted with water, containing an emulsifier concentration of 1000 ppm, to the desired concentration. Further test concentrations are prepared by dilution with emulsifier containing water.
Maize (Zea mays) leaf sections are sprayed with a preparation of the active ingredient of the desired concentration. Once dry, the leaf sections are infested with fall armyworm larvae (Spodoptera frugiperda).
After 7 days mortality in % is determined. 100% means all caterpillars have been killed and 0% means none of the caterpillars have been killed.
Spodoptera frugiperda—Spray Test (SPODFR)
After the specified period of time, mortality in % is determined. 100% means all caterpillars have been killed and 0% means none of the caterpillars have been killed.

[2] = test system: larvae of the banded cucumber beetle (Diabrotica balteata); assay: Diabrotica balteata spray test; details: 168 h, 100 g/ha (=32 μg/well), after 7 days, read-out: efficacy (seedling growth)
Procedure: Diabrotica balteata—Spray Test
(§2) • Solvent: 78.0 parts by weight of acetone • 1.5 parts by weight of dimethylformamide • Emulsifier: alkylarylpolyglycol ether
as §1, with “solvent,” for “solvents”, “and the concentrate” for “and”
Soaked wheat seeds (Triticum aestivum) are placed in a multiple well plate filled with agar and some water and are incubated for 1 day to germinate (5 seeds per well). The germinated wheat seeds are sprayed with a test solution containing the desired concentration of the active ingredient. Afterwards each unit is infected with 10-20 larvae of the banded cucumber beetle (Diabrotica balteata).
After 7 days efficacy in % is determined. 100% means all the seedlings have grown up like in the untreated, uninfected control; 0% means none of the seedlings have grown.

[3] = test system: larvae of the southern green stink bug (Nezara viridula); assay: whole plant or invertebrate; details: 96 h
Procedure: Nezara viridula—Spray Test
as §2
as §1, with “solvent,” for “solvents”, “and the concentrate” for “and”
Barley plants (Hordeum vulgare) are sprayed with a test solution containing the desired concentration of the active ingredient and are infested with larvae of the southern green stink bug (Nezara viridula).
After 4 days mortality in % is determined. 100% means all the stink bugs have been killed; 0% means none of the stink bugs have been killed.

SMILES	mortality at 100 g/ha [1] [%]	pest or weed control at 32 µg/disc, 100 g/ha [2] [%]	mortality at 500 g/ha [3] [%]	mortality at 100 g/ha [3] [%]
CC(NC(=O)c1cc(OC(F)(F)F)cc(S(=O)(=O)C2CC2)c1)c1ncnn1-c1cc(C#N)ncn1 (stereo not drawn) [I-9]	100	–	–	–
C[C@H](NC(=O)c1cc(Cl)cc(S(=O)(=O)c2ccc(Cl)cc2)c1)c1ncnn1-c1cc(C#N)ncn1 [I-11]	100	80	–	–
C[C@H](NC(=O)c1cc(Br)cc(OC(F)(F)F)c1)c1nc(C2CC2)nn1-c1cc(C(N)=O)ncn1 [I-13, 6-[5-[(1S)-1-[[3-bromo-5-(trifluoromethoxy)benzoyl]amino]ethyl]-3-cyclopropyl-1,2,4-triazol-1-yl]pyrimidine-4-carboxamide]	100	100	–	–
C[C@H](NC(=O)c1cc(OC(F)(F)F)cc(S(C)(=O)=O)c1)c1nc(C2CC2)nn1-c1cc(C#N)ncn1 [I-14]	–	100	–	–
C[C@H](NC(=O)c1cc(Br)cc(OC(F)(F)F)c1)c1nc(C2CC2)nn1-c1cc(C#N)ncn1 [I-15, 3-bromo-N-[(1S)-1-[2-(6-cyanopyrimidin-4-yl)-5-cyclopropyl-1,2,4-triazol-3-yl]ethyl]-5-(trifluoromethoxy)benzamide]	100	100	–	–
C[C@H](NC(=O)c1cc(Br)cc(OC(F)F)c1)c1nc(C2CC2)nn1-c1cc(C#N)ncn1 [I-16]	–	100	–	–
C[C@H](NC(=O)c1cc(OC(F)(F)F)cc(C2CC2)c1)c1nc(C2CC2)nn1-c1cc(C#N)ncn1 [I-17]	–	100	–	–
Cc1nc([C@H](C)NC(=O)c2cc(Cl)cc(S(=O)(=O)C(F)(F)F)c2)n(-c2cc(C#N)ncn2)n1 [I-24]	100	100	–	–
Cc1nc([C@H](C)NC(=O)c2cc(Br)cc(OC(F)F)c2)n(-c2cc(C#N)ncn2)n1 [I-26]	100	100	–	–
Cc1nc([C@H](C)NC(=O)c2cc(Cl)cc(S(=O)(=O)C(F)F)c2)n(-c2cc(C#N)ncn2)n1 [I-27]	100	100	–	–
Cc1nc([C@H](C)NC(=O)c2cc(OC(F)(F)F)cc(S(C)(=O)=O)c2)n(-c2cc(C#N)ncn2)n1 [I-30]	100	100	100	–
C[C@H](NC(=O)c1cc(OC(F)(F)F)cc(C2(C#N)CC2)c1)c1nc(C2CC2)nn1-c1cc(C#N)ncn1 [I-43]	100	80	–	–
C[C@H](NC(=O)c1cc(OC(F)(F)F)cc(S(C)(=O)=O)c1)c1nc(C2CC2)nn1-c1cc(C(N)=O)ncn1 [I-47]	100	100	–	–
C[C@H](NC(=O)c1cc(C#N)cc(OC(F)(F)F)c1)c1nc(C2CC2)nn1-c1cc(C#N)ncn1 [I-53]	–	100	–	–
C[C@H](NC(=O)c1cc(Br)cc(C2CC2(Cl)Cl)c1)c1ncnn1-c1cc(C#N)ncn1 (stereo partly drawn) [I-54]	100	100	–	–
CNC(=O)c1cc(-n2nc(C)nc2[C@H](C)NC(=O)c2cc(Cl)cc(S(C)(=O)=O)c2)ncn1 [I-62]	83	–	100	–
C[C@H](NC(=O)c1cc(OC(F)(F)F)cc(S(=O)(=O)C(F)(F)F)c1)c1ncnn1-c1cc(C#N)ncn1 [I-91]	100	100	–	–
Cc1nc([C@H](C)NC(=O)c2cc(F)cc(C#N)c2)n(-c2cc(C(N)=O)ncn2)n1 [I-96]	–	–	100	–
Cc1nc([C@H](C)NC(=O)c2cc(OC(F)F)cc(OC(F)F)c2)n(-c2cc(C(=O)N(C)C(C)C)ncn2)n1 [I-100]	83	–	–	–
C[C@H](NC(=O)c1cc(Br)cc(OC(F)F)c1)c1nc(C2CC2)nn1-c1cc(C(N)=O)ncn1 [I-104]	100	100	–	–
C[C@H](NC(=O)c1cc(C(F)(F)F)cc(C(F)(F)F)c1)c1nc(C2CC2)nn1-c1cc(C(N)=O)ncn1 [I-105]	100	100	–	–
C[C@H](NC(=O)c1cc(Cl)cc(OC(F)(F)F)c1)c1nc(C2CC2)nn1-c1cc(C(N)=O)ncn1 [I-106]	100	100	–	–
C[C@H](NC(=O)c1cc(S(=O)(=O)C(F)(F)F)cc(S(=O)(=O)C(F)(F)F)c1)c1nc(C2CC2)nn1-c1cc(C(N)=O)ncn1 [I-107]	100	100	–	–

SMILES	mortality at 100 g/ha [1] [%]	pest or weed control at 32 µg/disc, 100 g/ha [2] [%]	mortality at 500 g/ha [3] [%]	mortality at 100 g/ha [3] [%]
C[C@H](NC(=O)c1cc(C(F)(F)F)cc(S(C)(=O)=O)c1)c1nc(C2CC2)nn1-c1cc(C(N)=O)ncn1 [I-108]	100	–	–	–
C[C@H](NC(=O)c1cc(Cl)cc(S(=O)(=O)C(F)(F)F)c1)c1nc(C2CC2)nn1-c1cc(C(N)=O)ncn1 [I-109]	100	100	–	–
CC(C)N(C)C(=O)c1cc(-n2ncnc2[C@H](C)NC(=O)c2cccc(OC(F)(F)F)c2)ncn1 [I-111]	100	–	–	–
C[C@H](NC(=O)c1cc(Cl)cc(OC(F)(F)C(F)(F)I)c1)c1ncnn1-c1cc(C(N)=O)ncn1 [I-114, 6-(5-{(1S)-1-[3-chloro-5-(1,1,2,2-tetrafluoro-2-iodoethoxy)benzamido]ethyl}-1H-1,2,4-triazol-1-yl)pyrimidine-4-carboxamide]	100	100	–	–
Cc1nc([C@H](C)NC(=O)c2cc(OC(F)(F)F)cc(OC(F)(F)F)c2)n(-c2cc(C(N)=O)ncn2)n1 [I-117]	100	100	100	–
C[C@H](NC(=O)c1cc(Cl)cc(S(=O)(=O)C(F)F)c1)c1ncnn1-c1cc(C#N)ncn1 [I-119]	100	100	100	–
CC(C)N(C)C(=O)c1cc(-n2ncnc2[C@H](C)NC(=O)c2cc(Br)cc(OC(F)(F)C(F)F)c2)ncn1 [I-123]	100	–	–	–
Cc1nc([C@H](C)NC(=O)c2cc(Br)cc(C#N)c2)n(-c2cc(C(N)=O)ncn2)n1 [I-127]	100	100	100	90
Cc1nc([C@H](C)NC(=O)c2cc(Cl)cc(C#N)c2)n(-c2cc(C(N)=O)ncn2)n1 [I-131]	–	100	100	–
C[C@H](NC(=O)c1ccnc(OC(F)(F)F)c1)c1ncnn1-c1cc(C(N)=O)ncn1 [I-132]	100	100	100	–
CSc1cc(OC(F)F)cc(C(=O)N[C@@H](C)c2nc(C3CC3)nn2-c2cc(C(N)=O)ncn2)c1 [I-137]	100	–	–	–
C[C@H](NC(=O)c1cc(Br)cc(S(=O)(=O)C(F)(F)F)c1)c1ncnn1-c1cc(C(N)=O)ncn1 [I-138]	100	80	100	–
C[C@H](NC(=O)c1cc(OC(F)(F)F)cc(S(=O)(=O)C(F)F)c1)c1nc(C2CC2)nn1-c1cc(C(N)=O)ncn1 [I-144]	100	–	–	–
C[C@H](NC(=O)c1cc(Br)cc(Br)c1)c1nc(C2CC2)nn1-c1cc(C(N)=O)ncn1 [I-145]	100	100	–	–
C[C@H](NC(=O)c1cc(OC(F)(F)F)cc(C2CC2)c1)c1nc(C2CC2)nn1-c1cc(C(N)=O)ncn1 [I-146]	100	100	–	–
C[C@H](NC(=O)c1cc(C(F)F)cc(C(F)F)c1)c1nc(C2CC2)nn1-c1cc(C(N)=O)ncn1 [I-147]	100	–	100	–
C[C@H](NC(=O)c1cc(Cl)cc(S(=O)(=O)C(F)F)c1)c1nc(C2CC2)nn1-c1cc(C(N)=O)ncn1 [I-151]	83	–	–	–
C[C@H](NC(=O)c1cc(OC(F)F)cc(C2CC2)c1)c1nc(C2CC2)nn1-c1cc(C(N)=O)ncn1 [I-153]	100	100	–	–
CNC(=O)c1cc(-n2nc(C3CC3)nc2[C@H](C)NC(=O)c2cc(OC(F)(F)F)cc(S(C)(=O)=O)c2)ncn1 [I-155]	100	–	100	–
C[C@H](NC(=O)c1cc(OC(F)(F)F)cc(S(=O)(=O)C(F)(F)F)c1)c1nc(C2CC2)nn1-c1cc(C(=O)N(C)C)ncn1 [I-157]	100	100	–	–
C[C@H](NC(=O)c1cc(Br)cc(Br)c1)c1nc(C2CC2)nn1-c1cc(C(=O)N(C)C)ncn1 [I-158]	100	100	–	–
C[C@H](NC(=O)c1cc(OC(F)(F)F)cc(OC(F)(F)F)c1)c1nc(C2CC2)nn1-c1cc(C(=O)N(C)C)ncn1 [I-165]	100	100	–	–
